Assay results published in the NIST ThermoML archive (doi:10.1021/je025610o).

Key:
[1] = xn = mol fraction of the nth substance listed; conditions: 100 kPa, Liquid; for thermal conductivity: Hot wire method
[2] = 100 kPa, Liquid, Capillary tube (Ostwald / Ubbelohde) method

OCCOCCO [diethylene glycol] + O
[1]
Conditions | mass density [kg/m3] | thermal conductivity [W/m/K] | viscosity [mPa·s]
293.45 K, x1 = 0.5 | 1111 | – | 22
294.05 K, x1 = 0.75 | 1115 | – | 30.4
294.25 K, x1 = 0.25 | 1095 | – | 9.79
294.4 K, x1 = 0.25 | – | 0.291 | –
295.9 K, x1 = 0.5 | – | 0.235 | –
296.4 K, x1 = 0.75 | – | 0.209 | –
312.95 K, x1 = 0.5 | 1097 | – | 9.64
313.05 K, x1 = 0.25 | 1081 | – | 4.88
313.05 K, x1 = 0.75 | 1101 | – | 13.3
322.1 K, x1 = 0.5 | – | 0.244 | –
323.4 K, x1 = 0.25 | – | 0.31 | –
323.8 K, x1 = 0.75 | – | 0.213 | –
332.95 K, x1 = 0.5 | 1082 | – | 5.03
333.05 K, x1 = 0.25 | 1066 | – | 2.76
333.05 K, x1 = 0.75 | 1087 | – | 6.75
347.4 K, x1 = 0.25 | – | 0.315 | –
347.8 K, x1 = 0.5 | – | 0.249 | –
349.6 K, x1 = 0.75 | – | 0.217 | –
352.95 K, x1 = 0.5 | 1066 | – | 3.01
353.05 K, x1 = 0.75 | 1071 | – | 3.9
353.15 K, x1 = 0.25 | 1051 | – | 1.76
371.9 K, x1 = 0.5 | – | 0.258 | –
373 K, x1 = 0.25 | – | 0.322 | –
373.2 K, x1 = 0.75 | – | 0.219 | –
380.05 K, x1 = 0.5 | 1043 | – | –
381.45 K, x1 = 0.25 | 1027 | – | –
382.55 K, x1 = 0.5 | – | – | 1.66
382.55 K, x1 = 0.75 | 1048 | – | –
384.95 K, x1 = 0.25 | – | – | 1.03
385.05 K, x1 = 0.75 | – | – | 2
390.25 K, x1 = 0.5 | 1035 | – | –
390.95 K, x1 = 0.75 | 1042 | – | –
392.75 K, x1 = 0.25 | 1017 | – | –
394.25 K, x1 = 0.5 | – | – | 1.37
394.95 K, x1 = 0.75 | – | – | 1.72
395.6 K, x1 = 0.5 | – | 0.257 | –
396 K, x1 = 0.25 | – | 0.325 | –
396.75 K, x1 = 0.25 | – | – | 0.912
396.9 K, x1 = 0.75 | – | 0.217 | –
405.35 K, x1 = 0.5 | 1023 | – | –
406.95 K, x1 = 0.75 | 1029 | – | –
409.25 K, x1 = 0.25 | 1004 | – | –
409.35 K, x1 = 0.5 | – | – | 1.12
410.95 K, x1 = 0.75 | – | – | 1.35
413.25 K, x1 = 0.25 | – | – | 0.743
421.5 K, x1 = 0.25 | – | 0.33 | –
421.6 K, x1 = 0.75 | – | 0.222 | –
422 K, x1 = 0.5 | – | 0.256 | –
424.25 K, x1 = 0.5 | 1006 | – | –
424.65 K, x1 = 0.75 | 1014 | – | –
426.35 K, x1 = 0.25 | 987.6 | – | –
428.25 K, x1 = 0.5 | – | – | 0.865
428.65 K, x1 = 0.75 | – | – | 1.05
430.35 K, x1 = 0.25 | – | – | 0.61
441.65 K, x1 = 0.25 | 973.3 | – | –
443.05 K, x1 = 0.5 | 988.2 | – | –
443.65 K, x1 = 0.75 | 996.3 | – | –
445.65 K, x1 = 0.25 | – | – | 0.521
446.8 K, x1 = 0.75 | – | 0.213 | –
447 K, x1 = 0.5 | – | 0.253 | –
447.05 K, x1 = 0.5 | – | – | 0.707
447.5 K, x1 = 0.25 | – | 0.328 | –
447.65 K, x1 = 0.75 | – | – | 0.838

OCCOCCOCCO [triethylene glycol]
[2]
Conditions | viscosity [mPa·s]
299.65 K | 35.1
313.05 K | 19.5
333.1 K | 9.66
353.05 K | 5.55
373.5 K | 3.41
393.3 K | 2.36
413.25 K | 1.71
428.1 K | 1.39

OCCOCCOCCO [triethylene glycol] + O
[1]
Conditions | mass density [kg/m3] | thermal conductivity [W/m/K] | viscosity [mPa·s]
293.85 K, x1 = 0.25 | 1108 | – | 19.2
294.05 K, x1 = 0.5 | 1120 | – | 36
294.15 K, x1 = 0.75 | 1122 | – | 43.2
295 K, x1 = 0.25 | – | 0.258 | –
295.5 K, x1 = 0.5 | – | 0.21 | –
295.5 K, x1 = 0.75 | – | 0.195 | –
313.05 K, x1 = 0.25 | 1093 | – | 8.6
313.05 K, x1 = 0.5 | 1105 | – | 15.2
313.05 K, x1 = 0.75 | 1108 | – | 18.3
323.8 K, x1 = 0.25 | – | 0.268 | –
324.6 K, x1 = 0.5 | – | 0.216 | –
327.1 K, x1 = 0.75 | – | 0.197 | –
333.05 K, x1 = 0.25 | 1078 | – | 4.52
333.05 K, x1 = 0.5 | 1089 | – | 7.52
333.05 K, x1 = 0.75 | 1092 | – | 9.04
349.1 K, x1 = 0.25 | – | 0.275 | –
349.5 K, x1 = 0.5 | – | 0.219 | –
349.8 K, x1 = 0.75 | – | 0.201 | –
353.05 K, x1 = 0.25 | 1061 | – | 2.7
353.05 K, x1 = 0.5 | 1073 | – | 4.32
353.05 K, x1 = 0.75 | 1076 | – | 5.19
372.7 K, x1 = 0.75 | – | 0.202 | –
373.6 K, x1 = 0.5 | – | 0.22 | –
373.8 K, x1 = 0.25 | – | 0.28 | –
379.65 K, x1 = 0.25 | 1039 | – | –
382.15 K, x1 = 0.25 | – | – | 1.5
384.25 K, x1 = 0.5 | 1046 | – | –
384.95 K, x1 = 0.75 | 1049 | – | –
386.75 K, x1 = 0.5 | – | – | 2.09
387.45 K, x1 = 0.75 | – | – | 2.41
389.35 K, x1 = 0.25 | 1030 | – | –
391.35 K, x1 = 0.5 | 1041 | – | –
392.55 K, x1 = 0.75 | 1044 | – | –
393.35 K, x1 = 0.25 | – | – | 1.27
395.35 K, x1 = 0.5 | – | – | 1.84
396 K, x1 = 0.5 | – | 0.221 | –
396.4 K, x1 = 0.25 | – | 0.285 | –
396.55 K, x1 = 0.75 | – | – | 2.11
397.6 K, x1 = 0.75 | – | 0.2 | –
405.75 K, x1 = 0.25 | 1016 | – | –
407.45 K, x1 = 0.75 | 1032 | – | –
407.85 K, x1 = 0.5 | 1028 | – | –
409.75 K, x1 = 0.25 | – | – | 1
411.45 K, x1 = 0.75 | – | – | 1.68
411.85 K, x1 = 0.5 | – | – | 1.43
421.3 K, x1 = 0.25 | – | 0.292 | –
421.9 K, x1 = 0.5 | – | 0.221 | –
422.5 K, x1 = 0.75 | – | 0.198 | –
423.35 K, x1 = 0.25 | 999.2 | – | –
425.35 K, x1 = 0.75 | 1016 | – | –
425.95 K, x1 = 0.5 | 1011 | – | –
427.35 K, x1 = 0.25 | – | – | 0.813
429.35 K, x1 = 0.75 | – | – | 1.3
429.95 K, x1 = 0.5 | – | – | 1.11
442.45 K, x1 = 0.25 | 980 | – | –
443.45 K, x1 = 0.5 | 995 | – | –
444.55 K, x1 = 0.75 | 999.5 | – | –
445 K, x1 = 0.25 | – | 0.282 | –
446.45 K, x1 = 0.25 | – | – | 0.662
446.5 K, x1 = 0.75 | – | 0.195 | –
447.45 K, x1 = 0.5 | – | – | 0.903
448.3 K, x1 = 0.5 | – | 0.216 | –
448.55 K, x1 = 0.75 | – | – | 1.03
